From patent publication US20110159017A1, “TRYTOPHAN CATABOLISM IN CANCER TREATMENT AND DIAGNOSIS” (Ludwig Institute for Cancer Research Ltd., priority 2008, published 2011)

Assays:
IDO [1] = molecular target: T1, IDO (Homo sapiens, UniProt P14902); details: J F Reinhard et al., 1996, read-out: IC50 (affinity to IDO); cited from earlier work
Target sequence in this assay (P14902 whole entry, species assumed): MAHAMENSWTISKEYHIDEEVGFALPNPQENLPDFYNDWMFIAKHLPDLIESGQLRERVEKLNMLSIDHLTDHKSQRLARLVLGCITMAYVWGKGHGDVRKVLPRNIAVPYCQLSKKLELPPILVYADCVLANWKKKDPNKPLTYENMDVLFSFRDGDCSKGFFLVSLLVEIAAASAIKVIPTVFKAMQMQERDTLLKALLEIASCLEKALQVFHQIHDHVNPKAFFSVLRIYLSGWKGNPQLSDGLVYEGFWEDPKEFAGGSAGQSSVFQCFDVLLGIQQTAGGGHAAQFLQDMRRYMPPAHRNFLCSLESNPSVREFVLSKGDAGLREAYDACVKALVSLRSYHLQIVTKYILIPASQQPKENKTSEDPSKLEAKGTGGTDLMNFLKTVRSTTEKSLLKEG

IDO [2] = molecular target: T1, IDO; assay: Tryptophan degradation and kynurenin production by 293-E cells transfected with human IDO, HPLC of supernatant; type: cell-based; design: expressed in transfected cells; host or cells: human 293-EBNA (293-E) cells; details: 293-E hIDO cells, overnight, HBSS with 25 μM tryptophan, increasing inhibitor concentrations (FIG. 4)
Description: FIG. 4. Line graphs depicting concentrations of tryptophan and kynurenine in culture supernatants of different transfected cells. Control human 293-EBNA cells (293-E) (FIG. 4A), 293-E cells transfected with human IDO (293-E hIDO) (FIG. 4B) or human 293-E cells transfected with human TDO2 (293-E hTDO) (FIG. 4C) were incubated overnight (4×10^5 cells/2000) in Hank's balanced Salt solution (HBSS) supplemented with 25 μM tryptophan and increasing concentrations of the 680C91 inhibitor compound ([inh]). The concentrations (μM) of tryptophan ([Trp], ⋄) and kynurenin ([Kyn], □) were measured by HPLC in the supernatant.
A TDO inhibitor, 680C91, was described in Salter, M., R. Hazelwood, C. I. Pogson, R. Iyer, and D. J. Madge. 1995. Biochem. Pharmacol. 49:1435-1442. We synthesized this compound and tested its capacity to block tryptophan degradation by human 293 cells transfected with TDO2.
Target sequence in this assay (P14902 whole entry): as the sequence (P14902 whole entry, species assumed) above

[3] = molecular target: T2, TDO2 in Head and Neck carcinoma cell line 2720 (SENY) (Homo sapiens, UniProt P48775); assay: Tryptophan consumption and kynurenine production by Head and Neck carcinoma cell line 2720 (SENY), HPLC of supernatant; type: cell-based; details: at 20 μM; SENY cells, overnight, HBSS with 50 μM tryptophan
T2 construct: To confirm the expression of enzymatically active TDO2, we used Head and Neck carcinoma cell line 2720 (SENY); endogenous in cells; host or cells: Head and Neck carcinoma cell line 2720 (SENY)
Description: FIG. 5. A bar graph depicting tryptophan consumption and kynurenine production in head and neck carcinoma cell line 2720 (SENY) in the presence or absence of the TDO-specific inhibitor 680C91 or the IDO inhibitor mb.
To confirm the expression of enzymatically active TDO2, we used Head and Neck carcinoma cell line 2720 (SENY), which expresses 12.7 molecules of TDO2 mRNA/cell. We measured tryptophan consumption and kynurenine production in the supernatant of 5×10^5 cells incubated overnight in 2 ml of HBSS containing 50 μM tryptophan. Tryptophan and kynurenine concentrations were measured by HPLC using standard methods.
See FIG. 5 for results of this assay. To confirm that the tryptophan-degrading activity was due to TDO, TDO-specific inhibitor 680C91 was included at 5 μM or 20 μM. As control, an IDO inhibitor (mb) was also used at 5 μM or 20 μM. A tryptophan-degrading activity was detected and was clearly observed by looking at the production of kynurenine: 11 μM as compared to 0 in the control without cells. This activity was mostly attributable to TDO, as it was blocked by the TDO-specific inhibitor 680C91 (50% inhibition at 20 μM).

human TDO2 = molecular target: T3, human TDO2 (Homo sapiens, UniProt P48775); assay: Tryptophan degradation and kynurenin production by 293-E cells transfected with human TDO2, HPLC of supernatant; type: cell-based; details: 293-E hTDO cells, overnight, HBSS with 25 μM tryptophan, increasing inhibitor concentrations (FIG. 4)
T3 construct: expressed in transfected cells; host or cells: human 293-EBNA (293-E) cells
T3 sequence (P48775 whole entry): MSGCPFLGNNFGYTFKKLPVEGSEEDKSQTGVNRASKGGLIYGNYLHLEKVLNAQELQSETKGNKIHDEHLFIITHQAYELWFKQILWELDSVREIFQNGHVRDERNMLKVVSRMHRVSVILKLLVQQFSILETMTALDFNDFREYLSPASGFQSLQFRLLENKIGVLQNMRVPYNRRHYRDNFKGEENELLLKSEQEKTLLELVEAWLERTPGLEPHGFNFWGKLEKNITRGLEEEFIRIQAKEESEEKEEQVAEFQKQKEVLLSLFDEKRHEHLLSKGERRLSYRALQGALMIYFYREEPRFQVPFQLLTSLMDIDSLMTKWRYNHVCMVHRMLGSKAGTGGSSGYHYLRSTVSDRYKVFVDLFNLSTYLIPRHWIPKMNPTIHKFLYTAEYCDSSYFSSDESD

T2 sequence (P48775 whole entry): as above

Compound | IC50 (IDO [1]) [µM] | block of tryptophan degradation and kynurenin production by IDO-expressing cells (IDO [2]) | inhibition of tryptophan-degrading activity (kynurenine production) [3] [%] | block of tryptophan degradation and kynurenin production by TDO-expressing cells (human TDO2)
C(=C\c1c[nH]c2ccccc12)/c1ccncc1 [540C91, (E)-3-[2-(4′-pyridyl)-vinyl]-1H-indole] | 1150 |  |  | 
Fc1ccc2c(/C=C/c3cccnc3)c[nH]c2c1 [680C91, (E)-6-fluoro-3-[2-(3-pyridyl)vinyl]-1H-indole] |  | failed to block | 50 | efficiently blocked
